Here are results for one molecule from PMC3605638 (The Journal of Biological Chemistry, 2013).

In the assay the target is T1, D. discoideum class I RNR (NrdA + NrdB) (Dictyostelium discoideum, UniProt Q54Q71).
T1 sequence (Q54Q71 1-870): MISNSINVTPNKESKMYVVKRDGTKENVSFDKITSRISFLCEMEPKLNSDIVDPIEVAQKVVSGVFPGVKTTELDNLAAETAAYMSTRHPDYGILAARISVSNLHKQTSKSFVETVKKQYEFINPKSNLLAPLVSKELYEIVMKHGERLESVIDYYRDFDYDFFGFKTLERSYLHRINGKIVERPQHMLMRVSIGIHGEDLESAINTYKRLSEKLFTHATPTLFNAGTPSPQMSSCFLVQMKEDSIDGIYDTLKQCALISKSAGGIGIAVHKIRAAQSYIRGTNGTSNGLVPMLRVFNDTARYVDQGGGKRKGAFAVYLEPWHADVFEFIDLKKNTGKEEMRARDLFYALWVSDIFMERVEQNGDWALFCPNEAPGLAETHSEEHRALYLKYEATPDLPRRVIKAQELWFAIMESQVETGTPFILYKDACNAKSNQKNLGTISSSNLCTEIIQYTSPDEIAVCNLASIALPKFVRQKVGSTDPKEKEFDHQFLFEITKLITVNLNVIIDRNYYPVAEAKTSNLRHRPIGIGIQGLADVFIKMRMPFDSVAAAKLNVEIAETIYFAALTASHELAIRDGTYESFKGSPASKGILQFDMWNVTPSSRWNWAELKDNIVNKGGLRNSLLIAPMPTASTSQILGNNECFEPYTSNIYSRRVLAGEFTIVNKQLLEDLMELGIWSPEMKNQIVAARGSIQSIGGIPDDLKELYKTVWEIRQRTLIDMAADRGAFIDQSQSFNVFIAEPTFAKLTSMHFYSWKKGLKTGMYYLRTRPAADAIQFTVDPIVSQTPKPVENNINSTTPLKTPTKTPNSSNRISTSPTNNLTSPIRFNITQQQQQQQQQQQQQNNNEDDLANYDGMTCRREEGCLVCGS
T1 sequence (P42521 1-338 partner): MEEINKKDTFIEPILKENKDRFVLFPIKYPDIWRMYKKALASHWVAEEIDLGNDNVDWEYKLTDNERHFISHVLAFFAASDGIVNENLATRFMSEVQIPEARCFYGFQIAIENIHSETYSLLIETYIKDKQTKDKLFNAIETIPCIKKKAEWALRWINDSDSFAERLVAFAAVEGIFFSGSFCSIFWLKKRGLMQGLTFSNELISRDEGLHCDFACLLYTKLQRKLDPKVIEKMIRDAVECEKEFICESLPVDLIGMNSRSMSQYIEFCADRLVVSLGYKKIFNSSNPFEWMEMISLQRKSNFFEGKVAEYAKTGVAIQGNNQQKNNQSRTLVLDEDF
As to the kind of experiment: radiolabelled GDP reduction assay. The following applies: dTTP as effector; 0.7 mM [14C]GDP; labelled compound; pH 7.5, 25 °C. The class given is biochemical.

`Nc1nc2c(ncn2[C@@H]2O[C@H](COP(=O)(O)OP(=O)(O)O)[C@@H](O)[C@H]2O)c(=O)[nH]1` [GDP]: the “radiolabelled GDP reduction assay” value is “characterized in vitro with CDP or GDP as substrate”.
